Source: the NIST ThermoML archive (doi:10.1021/je050403k)
Where “and” joins values, the source holds several entries; their conditions need not be identical. Equal entries are not always repeated. Numbers after ± are expanded uncertainties. One block for each molecule: values may come before it.

Settings: Liquid

- vapor or sublimation pressure (364.51 K): 1546.2 ± 11 kPa
Structure (SMILES): C=C(C)C [2-methylpropene]

- vapor or sublimation pressure (364.5 K): 1269.2 ± 8.9 kPa
Structure (SMILES): C/C=C/C [(E)-2-butene]

- vapor or sublimation pressure (365.43 K): 1213 ± 8.5 kPa
Structure (SMILES): C/C=C\C [(Z)-2-butene]

- vapor or sublimation pressure (364.51 K): 1284.5 ± 8.9 kPa
Structure (SMILES): CCCC [butane]

Continued, molecule first:

Structure (SMILES): C=CCC [1-butene]
- vapor or sublimation pressure (364.51 K): 1510.5 ± 10 kPa

Structure (SMILES): CC(C)C [2-methylpropane]
- vapor or sublimation pressure (364.5 K): 1685.6 ± 12 kPa

Structure (SMILES): CC(C)=O [acetone]
- vapor or sublimation pressure (364.51 K): 297.1 ± 2.1 kPa and 294.3 ± 2.1 kPa and 296.4 ± 2.1 kPa
- vapor or sublimation pressure (364.52 K): 296.8 ± 2.1 kPa
- vapor or sublimation pressure (365.43 K): 302.56 ± 2.1 kPa
